Values of other authors as cited in patent US20110042247A1 (priority 2009, published 2011).
Read-outs that look alike come from different tables or passages of the source.

Solubility (dimethylsulphoxide (DMSO))	Solubility (ethanol and water (50:50))	Solubility (methanol)	Solubility (methanol/water (50/50))	Solubility (water)	Solubility (5% Tween 80 in water)	Solubility (5% dextrose in water)	Solubility (N-methylpyrrolidone)	Solubility (acetone)	Solubility (ethanol)	Solubility (methyl ethyl ketone)	Solubility (normal saline)	Solubility (polyethylene glycol)	Solubility (propylene glycol)	Solubility (water saturated octanol)	Structure (SMILES)
soluble	slightly soluble	slightly soluble	slightly soluble	sparingly soluble											Nc1ncn([C@H]2C[C@H](O)[C@@H](CO)O2)c(=O)n1 [Decitabine, 4-amino-1-(2-deoxy-β-D-erythro-pentofuranosyl)-1,3,5-triazin-2(1H)-one]
soluble	slightly soluble			sparingly soluble	sparingly soluble	sparingly soluble	sparingly soluble	insoluble	insoluble	insoluble	sparingly soluble	slightly soluble	slightly soluble	sparingly soluble	Nc1ncn([C@@H]2O[C@H](CO)[C@@H](O)[C@H]2O)c(=O)n1 [Azacitidine, 4-amino-1-β-D-ribofuranosyl-1,3,5-triazin-2(1H)-one]
